Source: patent publication US9340500B2, “Aromatic heterocyclic derivative having TRPV4-inhibiting activity” (SHIONOGI & CO., LTD., priority 2011, dated 2016)
In brackets after ≈: the same amount, converted by molar mass.

Key:
[1] = biological target: T1, human TRPV4 (Homo sapiens (Human), UniProt Q9HBA0); assay: Test Example 1: measurement of TRPV4 inhibitory activity (Fluo 4-AM, FLIPR TETRA, 4α-PDD 1 μmol/L); assay type: cell-based; settings: hTRPV4/CHO cells; for IC50: 4α-PDD 1 μmol/L
Method: (§1) For each compound, TRPV4 inhibitory activity was measured using cells.
(§2) (1) The TRPV4 inhibitory activity was measured using CHO-K1 cells stably expressing human TRPV4 (hTRPV4/CHO cells).
(2) In the day before the experimental day, frozen cell were thawed and washed with the culture medium (MEM-α, 10% FBS, 2 mmol/L GlutaMax, 50 unit Penicillin, 50 μg/mL Streptomycin). Then cells were suspended in the culture medium.
(3) The 384-well plates which hTRPV4/CHO cells were seeded at densities of 4000 cells/well in the culture medium and cultured in a CO2 incubator in the presence of 5% CO2 at 37° C. for overnight was used as assay plates.
(4) The assay plate was washed with assay buffer (Hanks, 20 mmol/L HEPES, 2.5 mmol/L probenecid, pH7.4), and the buffer were remained at 20 μL/well.
(5) 10 μl of dye loading buffer (9 μmol/L Fluo 4-AM, 0.09% Pluronic F-127/assay buffer) was added to each well, then the assay plate was incubated in a CO2 incubator in the presence of 5% CO2 at 37° C. for one hour. (final 3 μmol/L Fluo4-AM).
(6) The assay plate was washed with the assay buffer, and the buffers were remained at 20 μL/well. Then the assay plate was incubated for 10 min at room temperature.
(7) Diluted compound solution was dispensed to each well in the compound plate, and mixed with built-in Pipette and Mixer of the Fluorescence analysis system FLIPR TETRA (Molecular devices).
(8) After incubation for 5 min, 20 μL of 4α-PDD solution were applied to each well of assay plate and mixed with the FLIPR TETRA. (final 1 μmol/L 4α-PDD)
(9) The fluorescent intensity was measured with FLIPR TETRA system for 10 min from the point of time addition the compound solution, at Ex 470-495 nm, Em 515-575 nm wavelength.
TRPV4 inhibitory activity (IC50 value and Ki value) of a compound was evaluated according to the following procedure.
(10) In the presence of the compound, the difference between maximal and minimal of fluorescent intensity value for 5 min from just before addition of 4α-PDD solution was calculated, and it was referred as Max-Min value. Max-Min value of the Ruthenium Red at 20 μM was defined as 100% inhibitory activity, Max-Min value in the absence of the compound was defined as 0% inhibitory activity. The TRPV4 inhibitory activity of the compound was calculated by the following formula. (1−(Max-Min value of the compound−100% inhibitory activity)/(0% inhibitory activity−100% inhibitory activity))×100 (11) Inhibitory activity was calculated at 10 points with three fold serial dilution, in the final concentration of the compound from 10 μmmol/L to 0.5 nmol/L, the IC50 value was calculated by logistic approximation method. (12) In the absence of the compound, the fluorescent intensity was measured as the same method with 10, 1, 0.5, 0.2, and 0 μmol/L as final concentration of 4α-PDD. The difference of minimal and maximal fluorescent intensity value for 5 min from just before addition of 4α-PDD solution was calculated, and it was referred as Max-Min value. Max-Min value of the 4α-PDD at 10 μmol/L was defined as 100% activity, Max-Min value in the absence of 4α-PDD was defined as 0% activity. The TRPV4 activity of each concentration of 4α-PDD was calculated by the following formula. (Max-Min value of the each 4α-PDD concentration−0% activity)/(100% activity−0% activity))×100 (13) Effective activity was calculated in 5 concentrations of 4α-PDD the above. The EC50 value was calculated by logistic approximation method. The Ki value of a compound was calculated by the following formula. Ki (nmol/L)=IC50 value (nmol/L)/(1+[…] (test 4α-PDD concentration (nmol/L)/EC50 value (nmol/L))

[2] = Solubility test; assay type: physicochemical; settings: artificial intestinal juice (phosphate buffer) with 1% DMSO, fassgf or other biorelevant, kinetic from dmso stock, artificial intestinal juice pH 6.8, 16 hours at 25° C.
Method: The solubility of each compound is determined under 1% DMSO addition conditions. A 10 mmol/L solution of the compound is prepared with DMSO, and 6 μL of the compound solution is added to 594 μL of an artificial intestinal juice (water and 118 mL of 0.2 mol/L NaOH reagent are added to 250 mL of 0.2 mol/L potassium dihydrogen phosphate reagent to reach 1000 mL) with a pH of 6.8. The mixture is left standing for 16 hours at 25° C., and the mixture is vacuum-filtered. The filtrate is two-fold diluted with methanol/water=1/1, and the compound concentration in the filtrate is measured with HPLC or LC/MS/MS by the absolute calibration method.

[3] = Metabolism stability test; assay type: in vitro ADME; settings: human liver microsomes, 30 minutes
Method: Using a commercially available pooled human hepatic microsomes, a test compound was reacted for a constant time, a remaining rate was calculated by comparing a reacted sample and an unreacted sample, thereby, a degree of metabolism in liver was assessed.
A reaction was performed (oxidative reaction) at 37° C. for 0 minute or 30 minutes in the presence of 1 mmol/L NADPH in 0.2 mL of a buffer (50 mmol/L Tris-HCl pH 7.4, 150 mmol/L potassium chloride, 10 mmol/L magnesium chloride) containing 0.5 mg protein/mL of human liver microsomes. After the reaction, 50 μL of the reaction mixture was added to 100 μL of a methanol/acetonitrile=1/1 (v/v), mixed and centrifuged at 3000 rpm for 15 minutes. The test compound in the supernatant was quantified by LC/MS/MS, and a remaining amount of the test compound after the reaction was calculated, letting a compound amount at 0 minute reaction time to be 100%. Hydrolysis reaction was performed in the absence of NADPH and glucuronidation reaction was in the presence of 5 mM UDP-glucuronic acid in place of NADPH, followed by similar operations.

[4] = biological target: T1, human TRPV4; assay: Test Example 3: measurement of TRPV4 inhibitory activity (Fluo-3, FDSS 3000, 4α-PDD); assay type: cell-based; settings: hTRPV4/CHO cells, calculated from IC50 and 4α-PDD EC50
Method: as §1, §2
(2) Frozen cells were thawed and subcultured with the medium (MEM-α, 10% FBS, […], 50 unit/mL penicillin, 50 μg/mL streptomycin, 1 mg/mL G418).
(3) The 96-well plates which hTRPV4/CHO cells were seeded at densities of 2×10^4 cells/well in the culture medium and cultured in a CO2 incubator in the presence of 5% CO2 at 37° C. for 24 h was used as assay plates.
(4) The assay plate was washed with assay buffer (Hanks, […], […], pH7.4).
(5) Fluo-3, fluorescent dye for Ca influx assay was added to each well, then the assay plate was incubated in a CO2 incubator in the presence of 5% CO2 at 37° C. for one hour (final conc.; 5 μmmol/L Fluo-3).
(6) The assay plate was washed with the assay buffer, and the buffer was remained at 30 μL/well. Then the assay plate was incubated for 10 min at 37° C.
(7) Diluted compound solution was dispensed to each well in the compound plate, and mixed with built-in Pipette and Mixer of the fluorescence analysis system FDSS 3000 (Hamamatsu Photonics).
(8) 50 μL of 4α-PDD solution (concluding 0.1% Pluronic F-127) was applied to each well of assay plate and mixed.
(9) The fluorescent intensity was measured by FDSS 3000 for 8 min from the point of time addition the compound solution, at Ex 480 nm, Em 540 nm wavelength.
TRPV4 inhibitory activity (Ki value) of a compound was evaluated according to the following procedure.
(10) In the presence of the compound, the difference between maximal and minimal of fluorescent intensity value for 8 min from just before addition of 4α-PDD solution was calculated, and it was referred as Max-Min value. Max-Min value of the Ruthenium Red at 10 μM was defined as 100% inhibitory activity, Max-Min value in the absence of the compound was defined as 0% inhibitory activity. The TRPV4 inhibitory activity of the compound was calculated by the following formula. (1−(Max-Min value of the compound−100% inhibitory activity)/(0% inhibitory activity−100% inhibitory activity))×100 (11) By the following formula, inhibitory activity was calculated at 10 points with three fold serial dilution, in the final concentration of the compound from 10 μmmol/L to 0.5 nmol/L. The IC50 value was calculated by dose-response curve. 100−[(fluorescent intensity in the presence of the compound−fluorescent intensity of back ground)/(total fluorescent intensity−fluorescent intensity of back ground)]×100 (12) In the presence of the compound, activity of 4α-PDD was measured at 9 points with three fold serial dilution from 20 μmol/L. Activity of 4α-PDD was calculated by the following formula. (Max-Min value of the each 4α-PDD concentration−0% activity)/(100% activity−0% activity))×100 (13) Effective activity was calculated in 4α-PDD the above. The EC50 value was calculated by dose-response curve. (14) The Ki value of a compound was calculated by the following formula. Ki (nmol/L)=IC50 value (nmol/L)/([A]/EC50 value (nmol/L)) [A]; Concentration of agonist (nmol/L)

[5] = compound concentration 0.5 μmol/L
[6] = compound concentration 2 μmol/L

T1 sequence (Q9HBA0 whole entry): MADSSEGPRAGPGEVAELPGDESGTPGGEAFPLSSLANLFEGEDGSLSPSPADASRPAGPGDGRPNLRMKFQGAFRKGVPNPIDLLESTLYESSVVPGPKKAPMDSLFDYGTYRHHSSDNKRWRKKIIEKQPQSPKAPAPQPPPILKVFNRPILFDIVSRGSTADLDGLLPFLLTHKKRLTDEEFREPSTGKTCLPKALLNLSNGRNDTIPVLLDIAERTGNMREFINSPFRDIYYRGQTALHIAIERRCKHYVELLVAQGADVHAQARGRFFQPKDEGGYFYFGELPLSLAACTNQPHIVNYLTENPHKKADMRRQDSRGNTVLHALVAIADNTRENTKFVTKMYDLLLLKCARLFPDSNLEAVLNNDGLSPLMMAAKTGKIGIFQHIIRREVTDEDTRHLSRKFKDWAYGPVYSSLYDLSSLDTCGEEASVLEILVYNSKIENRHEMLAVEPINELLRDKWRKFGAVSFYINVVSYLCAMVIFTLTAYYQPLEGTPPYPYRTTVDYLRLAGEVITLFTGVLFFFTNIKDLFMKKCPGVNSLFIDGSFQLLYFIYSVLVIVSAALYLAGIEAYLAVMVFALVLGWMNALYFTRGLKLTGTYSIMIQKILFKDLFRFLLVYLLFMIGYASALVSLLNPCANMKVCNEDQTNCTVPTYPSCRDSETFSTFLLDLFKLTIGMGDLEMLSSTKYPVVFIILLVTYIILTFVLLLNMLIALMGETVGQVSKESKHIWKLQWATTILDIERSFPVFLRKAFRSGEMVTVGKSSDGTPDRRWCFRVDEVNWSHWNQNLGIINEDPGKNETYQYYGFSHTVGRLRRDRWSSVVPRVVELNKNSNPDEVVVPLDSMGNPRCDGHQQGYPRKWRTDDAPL

Row | Structure (SMILES) | IC50 [1] | Ki ([1]; calculated from IC50 and 4α-PDD EC50) | solubility at 16 h [2] | remaining rate (metabolism stability) [3, 5] | Ki [4] | remaining rate (metabolism stability) [3, 6]
1 | Cc1c(C(=O)Nc2cccc(C(F)(F)F)c2)cc(C2CCNCC2)n1CCCN1CCOCC1 [Compound I-076] | 9700 nM | 4700 nM | > 50 µM | 92.7% |  | 
2 | Cc1c(C(=O)Nc2cccc(C(F)(F)F)c2)cc(-c2ccccc2)n1CCCN(C)CC[C@H](O)[C@H](O)CO [Compound I-035] |  |  | > 50 µM | 82.2% | 771 nM | 
3 | Cc1c(C(=O)Nc2nccs2)cc(-c2ccccc2)n1CCCN1CCOCC1 [Compound I-019] |  |  | > 50 µM |  | 1500 nM | 89.1%
4 | Cc1c(C(=O)Nc2ccccc2C(F)(F)F)cc(-c2ccccc2)n1CCCN1CCOCC1 [Compound I-022] | 2400 nM |  | > 50 µM |  | 2480 nM | 
5 | Cc1c(C(=O)Nc2cccc(C(F)(F)F)c2)cc(-c2cccnc2)n1CCCN1CCOCC1 [Compound I-021] | 610 nM |  | > 50 µM |  | 379 nM | 
6 | Cc1c(C(=O)Nc2cccc(C(F)(F)F)c2)cc(-c2ccccc2)n1CCCN [Compound I-023] |  |  |  | 96.9% | 605 nM | 
7 | Cc1c(C(=O)Nc2cccc(C(F)(F)F)c2)cc(-c2ccccc2)n1CCCN1CCNC(=O)C1 [Compound I-071] | 260 nM |  | 18.5 µM (≈ 8.96 µg/mL) |  | 196 nM | 
8 | Cc1c(C(=O)Nc2cccc(C(F)(F)F)c2)cc(-c2ccccc2)n1CCCN(C)CC(C)(C)CN(C)C [Compound I-038] |  |  | > 50 µM |  | 352 nM | 
9 | Cc1c(C(=O)Nc2cccc(C(F)(F)F)c2)cc(-c2ccccc2)n1CCCN(CCO)CCO [Compound I-016] | 130 nM |  | > 50 µM |  | 191 nM | 
10 | Cc1cc(C(=O)Nc2cccc(C(F)(F)F)c2)c(C)n1CCCN1CCOCC1 [Compound I-017] |  |  | > 50 µM |  | 1560 nM | 
11 | Cc1c(C(=O)Nc2cnccn2)cc(-c2ccccc2)n1CCCN1CCOCC1 [Compound I-003] |  |  | > 50 µM |  | 3070 nM | 71.4%
12 | CCOC(=O)Cc1csc(NC(=O)c2cc(-c3ccccc3)n(CCCN3CCOCC3)c2C)n1 [Compound I-005] |  |  | > 50 µM |  | 1700 nM | 
13 | Cc1c(C(=O)Nc2ccc(Cl)cn2)cc(-c2ccccc2)n1CCCN1CCOCC1 [Compound I-004] |  |  | 39.2 µM (≈ 17.2 µg/mL) |  | 1570 nM | 
14 | Cc1c(C(=O)Nc2cccc(C(F)(F)F)c2)cc(-c2ccccc2)n1CCCN(C)CC1CCN(C)CC1 [Compound I-039] |  |  | > 50 µM |  | 282 nM | 
15 | Cc1c(C(=O)Nc2cccc(C(F)(F)F)c2)cc(-c2ccccc2)n1CCCN(C)CC1CC1 [Compound I-033] |  |  | 26.8 µM (≈ 12.6 µg/mL) |  | 655 nM | 
16 | Cc1c(C(=O)Nc2ccccc2)cc(-c2ccccc2)n1CCCN1CCOCC1 [Compound I-009] | 1500 nM |  | > 50 µM |  | 678 nM | 
17 | Cc1c(C(=O)Nc2cccc(C(F)(F)F)c2)cc(C(C)(C)C)n1CCCN1CCOCC1 [Compound I-002] | 360 nM |  | 19.3 µM (≈ 8.71 µg/mL) |  | 197 nM | 
18 | Cc1c(NS(=O)(=O)c2cccc(C(F)(F)F)c2)cc(-c2ccccc2)n1CCCN1CCOCC1 [Compound I-080] | 7400 nM |  | 24.3 µM (≈ 12.3 µg/mL) |  | 1800 nM | 
